Measurements taken from article PMC3851289 (Molecular cell, 2013).

Biological target: VprBP (Homo sapiens, UniProt Q9Y4B6)
Assay: in vitro kinase assay with recombinant VprBP and H2A
Assay type: biochemical

Sequence of VprBP (Q9Y4B6 whole entry): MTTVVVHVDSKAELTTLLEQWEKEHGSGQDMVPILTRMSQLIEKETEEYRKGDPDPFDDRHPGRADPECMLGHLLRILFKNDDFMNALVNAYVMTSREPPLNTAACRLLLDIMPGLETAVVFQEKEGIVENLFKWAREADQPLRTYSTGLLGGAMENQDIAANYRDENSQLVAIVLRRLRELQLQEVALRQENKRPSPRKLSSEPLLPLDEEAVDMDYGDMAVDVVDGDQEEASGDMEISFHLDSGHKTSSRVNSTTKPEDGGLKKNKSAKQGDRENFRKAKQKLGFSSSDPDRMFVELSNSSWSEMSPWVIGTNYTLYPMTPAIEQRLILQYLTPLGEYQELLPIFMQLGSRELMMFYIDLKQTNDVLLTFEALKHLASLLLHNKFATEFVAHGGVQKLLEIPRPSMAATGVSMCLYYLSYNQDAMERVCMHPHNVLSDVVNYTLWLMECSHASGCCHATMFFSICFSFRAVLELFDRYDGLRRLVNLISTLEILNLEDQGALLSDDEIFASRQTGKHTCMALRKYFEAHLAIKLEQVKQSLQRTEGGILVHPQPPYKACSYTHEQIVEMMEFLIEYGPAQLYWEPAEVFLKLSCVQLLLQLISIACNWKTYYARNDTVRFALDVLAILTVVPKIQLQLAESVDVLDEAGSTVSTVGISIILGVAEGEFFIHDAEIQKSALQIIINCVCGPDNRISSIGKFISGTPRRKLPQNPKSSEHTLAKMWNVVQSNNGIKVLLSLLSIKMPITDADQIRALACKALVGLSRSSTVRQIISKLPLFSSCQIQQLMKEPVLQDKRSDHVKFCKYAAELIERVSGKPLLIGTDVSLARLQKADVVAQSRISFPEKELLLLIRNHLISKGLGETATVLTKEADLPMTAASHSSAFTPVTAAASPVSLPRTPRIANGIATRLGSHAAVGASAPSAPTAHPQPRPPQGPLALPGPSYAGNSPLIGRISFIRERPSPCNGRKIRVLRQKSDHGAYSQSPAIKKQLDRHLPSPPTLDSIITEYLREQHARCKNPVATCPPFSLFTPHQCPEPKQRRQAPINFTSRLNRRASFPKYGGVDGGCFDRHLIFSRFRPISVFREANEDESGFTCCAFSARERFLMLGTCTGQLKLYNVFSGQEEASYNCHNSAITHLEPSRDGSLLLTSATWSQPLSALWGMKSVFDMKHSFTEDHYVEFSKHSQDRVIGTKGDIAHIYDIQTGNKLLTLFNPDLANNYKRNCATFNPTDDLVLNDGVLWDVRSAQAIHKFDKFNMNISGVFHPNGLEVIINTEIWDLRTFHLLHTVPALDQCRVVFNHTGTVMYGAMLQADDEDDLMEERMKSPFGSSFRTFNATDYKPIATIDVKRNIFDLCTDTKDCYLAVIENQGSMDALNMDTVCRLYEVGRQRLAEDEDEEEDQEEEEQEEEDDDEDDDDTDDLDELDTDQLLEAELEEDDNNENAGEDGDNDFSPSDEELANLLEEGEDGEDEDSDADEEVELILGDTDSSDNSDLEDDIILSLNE

B32B3
IC50: 600 nM
